Experimental data: ChEMBL document CHEMBL3885881, “DrugMatrix”

Organism: Rattus norvegicus
Experiment: DrugMatrix - Regimen: Daily Repeat
Assay type: toxicity, organism-based, Sprague-Dawley
Parameters: regimen Daily Repeat, gender Male, age 6-8 weeks
Conditions: in vivo, po, 100 mg/kg, route oral GAVAGE, dose level Low, vehicle .5 % CMC; for ABSOLUTE BASOPHIL / ABSOLUTE EOSINOPHIL / ABSOLUTE LYMPHOCYTE / ABSOLUTE MONOCYTE / ABSOLUTE SEGMENTED NEUTROPHIL / BASOPHIL / EOSINOPHIL / ERYTHROCYTE COUNT / HEMATOCRIT / HEMOGLOBIN / LEUKOCYTE COUNT / LYMPHOCYTE / MEAN CORPUSCULAR HEMOGLOBIN / MEAN CORPUSCULAR HEMOGLOBIN CONCENTRATION / MEAN CORPUSCULAR VOLUME / MONOCYTE / NEUTROPHIL / NUCLEATED RED BLOOD CELLS / PLATELET COUNT: tissue Blood; for ALANINE AMINOTRANSFERASE / ALBUMIN / ALKALINE PHOSPHATASE / ASPARTATE AMINOTRANSFERASE / BLOOD UREA NITROGEN / CARBON DIOXIDE / CHLORIDE / CHOLESTEROL / CREATINE PHOSPHOKINASE / CREATININE / GLUCOSE / LACTATE DEHYDROGENASE / LIPASE / PHOSPHORUS / POTASSIUM / SODIUM / TOTAL BILIRUBIN / TOTAL PROTEIN / URIC ACID: tissue Plasma

Q: Which results are given for `Nc1nc2c(c(=O)[nH]1)N(C=O)C(CNc1ccc(C(=O)N[C@@H](CCC(=O)O)C(=O)O)cc1)CN2` (stereo partly specified) [LEUCOVORIN]?
A: ABSOLUTE BASOPHIL (72 h, time 3 day): 0 CELLS/uL; ABSOLUTE EOSINOPHIL (72 h, time 3 day): 0 CELLS/uL; ABSOLUTE LYMPHOCYTE (72 h, time 3 day): 14793 CELLS/uL; ABSOLUTE MONOCYTE (72 h, time 3 day): 101.33 CELLS/uL; ABSOLUTE SEGMENTED NEUTROPHIL (72 h, time 3 day): 1572.33 CELLS/uL; BASOPHIL (72 h, time 3 day): 0%; EOSINOPHIL (72 h, time 3 day): 0%; ERYTHROCYTE COUNT (72 h, time 3 day): 5.73 x10E6/uL; HEMATOCRIT (72 h, time 3 day): 35.97%; HEMOGLOBIN (72 h, time 3 day): 14.23 G/DL; LEUKOCYTE COUNT (72 h, time 3 day): 16.47 x10E3/uL; LYMPHOCYTE (72 h, time 3 day): 89.67%; MEAN CORPUSCULAR HEMOGLOBIN (72 h, time 3 day): 24.9 pg; MEAN CORPUSCULAR HEMOGLOBIN CONCENTRATION (72 h, time 3 day): 39.63 G/DL; MEAN CORPUSCULAR VOLUME (72 h, time 3 day): 62.83 fL; MONOCYTE (72 h, time 3 day): 0.67%; NEUTROPHIL (72 h, time 3 day): 9.67%; NUCLEATED RED BLOOD CELLS (72 h, time 3 day): 0.33 /100WBC; PLATELET COUNT (72 h, time 3 day): 1244.67 x10E3/uL; ALANINE AMINOTRANSFERASE (72 h, time 3 day): 62.33 u/L; ALBUMIN (72 h, time 3 day): 4.43 G/DL; ALKALINE PHOSPHATASE (72 h, time 3 day): 427.33 u/L; ASPARTATE AMINOTRANSFERASE (72 h, time 3 day): 83.67 u/L; BLOOD UREA NITROGEN (72 h, time 3 day): 16.33 mg/dL; CARBON DIOXIDE (72 h, time 3 day): 29 mmol/L; CHLORIDE (72 h, time 3 day): 98.67 MEQ/L; CHOLESTEROL (72 h, time 3 day): 67 mg/dL; CREATINE PHOSPHOKINASE (72 h, time 3 day): 289.67 u/L; CREATININE (72 h, time 3 day): 0.22 mg/dL; GLUCOSE (72 h, time 3 day): 142 mg/dL; LACTATE DEHYDROGENASE (72 h, time 3 day): 152.33 u/L; LIPASE (72 h, time 3 day): 9.33 u/L; PHOSPHORUS (72 h, time 3 day): 14.03 mg/dL; POTASSIUM (72 h, time 3 day): 7.04 MEQ/L; SODIUM (72 h, time 3 day): 146.13 MEQ/L; TOTAL BILIRUBIN (72 h, time 3 day): 0.3 mg/dL; TOTAL PROTEIN (72 h, time 3 day): 6.1 G/DL; URIC ACID (72 h, time 3 day): 1.77 mg/dL; ABSOLUTE BASOPHIL (120 h, time 5 day): 0 CELLS/uL; ABSOLUTE EOSINOPHIL (120 h, time 5 day): 60.33 CELLS/uL; ABSOLUTE LYMPHOCYTE (120 h, time 5 day): 13263.33 CELLS/uL; ABSOLUTE MONOCYTE (120 h, time 5 day): 23.33 CELLS/uL; ABSOLUTE SEGMENTED NEUTROPHIL (120 h, time 5 day): 1019.67 CELLS/uL; BASOPHIL (120 h, time 5 day): 0%; EOSINOPHIL (120 h, time 5 day): 0.33%; ERYTHROCYTE COUNT (120 h, time 5 day): 5.54 x10E6/uL; HEMATOCRIT (120 h, time 5 day): 36.17%; HEMOGLOBIN (120 h, time 5 day): 13.53 G/DL; LEUKOCYTE COUNT (120 h, time 5 day): 14.37 x10E3/uL; LYMPHOCYTE (120 h, time 5 day): 92.67%; MEAN CORPUSCULAR HEMOGLOBIN (120 h, time 5 day): 24.4 pg; MEAN CORPUSCULAR HEMOGLOBIN CONCENTRATION (120 h, time 5 day): 37.4 G/DL; MEAN CORPUSCULAR VOLUME (120 h, time 5 day): 65.23 fL; MONOCYTE (120 h, time 5 day): 0.33%; NEUTROPHIL (120 h, time 5 day): 6.67%; NUCLEATED RED BLOOD CELLS (120 h, time 5 day): 1 /100WBC; PLATELET COUNT (120 h, time 5 day): 1225.67 x10E3/uL; ALANINE AMINOTRANSFERASE (120 h, time 5 day): 52 u/L; ALBUMIN (120 h, time 5 day): 4.3 G/DL; ALKALINE PHOSPHATASE (120 h, time 5 day): 311.67 u/L; ASPARTATE AMINOTRANSFERASE (120 h, time 5 day): 76 u/L; BLOOD UREA NITROGEN (120 h, time 5 day): 15.33 mg/dL; CARBON DIOXIDE (120 h, time 5 day): 26 mmol/L; CHLORIDE (120 h, time 5 day): 102 MEQ/L; CHOLESTEROL (120 h, time 5 day): 57.33 mg/dL; CREATINE PHOSPHOKINASE (120 h, time 5 day): 211.67 u/L; CREATININE (120 h, time 5 day): 0.21 mg/dL; GLUCOSE (120 h, time 5 day): 175.67 mg/dL; LACTATE DEHYDROGENASE (120 h, time 5 day): 113.33 u/L; LIPASE (120 h, time 5 day): 8.67 u/L; PHOSPHORUS (120 h, time 5 day): 12.6 mg/dL; POTASSIUM (120 h, time 5 day): 6.61 MEQ/L; SODIUM (120 h, time 5 day): 146.23 MEQ/L; TOTAL BILIRUBIN (120 h, time 5 day): 0.23 mg/dL; TOTAL PROTEIN (120 h, time 5 day): 6.1 G/DL; URIC ACID (120 h, time 5 day): 1.7 mg/dL
